The text below walks through data of US20090253669A1, “Substituted Sulfonamide Compounds” (GRUENENTHAL GmbH, priority 2008, published 2009).

As a reminder, the inhibition is the change of the read-out against control, counted positive when it falls.

In assay [1] the target is T1, human B1R receptor (hB1R) (Homo sapiens, UniProt P46663).
T1 construct: host or cells: CHO K1 cells
T1 sequence (P46663 1-353): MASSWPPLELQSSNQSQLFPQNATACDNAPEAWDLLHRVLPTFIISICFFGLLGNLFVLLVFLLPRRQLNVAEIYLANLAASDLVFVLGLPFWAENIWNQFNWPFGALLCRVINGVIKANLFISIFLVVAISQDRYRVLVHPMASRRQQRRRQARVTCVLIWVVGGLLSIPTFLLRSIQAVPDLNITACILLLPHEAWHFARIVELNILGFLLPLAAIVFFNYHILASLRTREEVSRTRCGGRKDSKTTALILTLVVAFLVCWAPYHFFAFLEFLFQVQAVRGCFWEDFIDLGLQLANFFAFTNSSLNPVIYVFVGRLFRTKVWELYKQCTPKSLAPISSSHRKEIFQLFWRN
In words: FLIPR Ca2+ assay on hB1R-transfected CHO K1 cells, antagonistic action. In kind it is cell-based. Particulars: CHO-K1, 10 μM test substance; agonist Lys-Des-Arg9-bradykinin 0.5 nM; % of maximum achievable inhibition; read-out: hB1R [10 μM] % inhibition.

Assay [2] addresses T2, B1R receptor of the rat (rB1R) (Rattus norvegicus, UniProt P97583).
T2 construct: host or cells: CHO K1 cells
T2 sequence (P97583 1-337): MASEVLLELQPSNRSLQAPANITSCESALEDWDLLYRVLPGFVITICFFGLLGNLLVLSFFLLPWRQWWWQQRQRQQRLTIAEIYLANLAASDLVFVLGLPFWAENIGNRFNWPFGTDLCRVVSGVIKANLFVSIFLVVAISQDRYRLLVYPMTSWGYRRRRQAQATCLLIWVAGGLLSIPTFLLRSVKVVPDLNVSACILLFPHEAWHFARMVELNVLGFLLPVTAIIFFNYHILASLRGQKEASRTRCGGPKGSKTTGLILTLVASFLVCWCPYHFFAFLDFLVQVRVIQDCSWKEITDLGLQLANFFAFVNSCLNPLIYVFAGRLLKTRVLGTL
In words: FLIPR Ca2+ assay on rB1R-transfected CHO K1 cells, antagonistic action. It is filed as cell-based. Particulars: CHO-K1, 10 μM test substance; agonist Des-Arg9-bradykinin 100 nM; % of maximum achievable inhibition; read-out: rB1R [10 μM] % inhibition.

In the case of `COc1cc(C)c(S(=O)(=O)N2CCCCC2CCOCC(=O)N2CCC(c3cccc(F)c3)(N3CCN(C)CC3)CC2)c(C)c1` (stereo not shown) [Compound 227, 1-(4-(3-Fluorophenyl)-4-(4-methylpiperazin-1-yl)piperidin-1-yl)-2-(2-(1-(4-methoxy-2,6-dimethylphenylsulfonyl)piperidin-2-yl)ethoxy)ethanone], the inhibition at 10 µM was determined as 100% in assay [1] and 99% in assay [2].

In the case of `CN1CCN(C2(c3cccc(F)c3)CCN(C(=O)COCC3CCc4ccccc4N3S(=O)(=O)c3ccc4ccccc4c3)CC2)CC1` (stereo not shown) [Compound 228, 1-(4-(3-Fluorophenyl)-4-(4-methylpiperazin-1-yl)piperidin-1-yl)-2-((1-(naphthalen-2-ylsulfonyl)-1,2,3,4-tetrahydroquinolin-2-yl)methoxy)ethanone], the inhibition at 10 µM came to 100% in assay [1] and 101% in assay [2].
